In one data set the test system is DENV-4 strain H241. In words: Tetravalent RT-qPCR assay, serotype 4. The conditions noted are these: Dengue virus, DENV4, 72 h; RT-qPCR serotype 4 H241, Protocol A, Vero cells, day 3. The format is cell-based. Here is the method:
(§1) The antiviral activity of the compounds of the invention was tested against DENV-1 strain TC974#666 (NCPV), DENV-2 strain 16681, DENV-3 strain H87 (NCPV) and DENV-4 strain H241 (NCPV) in a RT-qPCR assay. Therefore, Vero cells were infected with either DENV-1, or -2, or -3, or -4 in the presence or absence of test compounds. At day 3 post-infection, the cells were lysed and cell lysates were used to prepare cDNA of both a viral target (the 3′UTR of DENV; Table 2) and a cellular reference gene (β-actin, Table 2). Subsequently, a duplex real time PCR was performed on a Lightcycler480 instrument. The generated Cp value is inversely proportional to the amount of RNA expression of these targets. Inhibition of DENV replication by a test compound results in a shift of Cp's for the 3′UTR gene. On the other hand, if a test compound is toxic to the cells, a similar effect on β-actin expression will be observed. The comparative ΔΔCp method is used to calculate EC50, which is based on the relative gene expression of the target gene (3′UTR) normalized with the cellular housekeeping gene (β-actin). In addition, CC50 values are determined based on the Cp values acquired for the housekeeping gene β-actin.
(§2) The culture medium consisted of minimal essential medium supplemented with 2% of heat-inactivated fetal calf serum, 0.04% gentamycin (50 mg/mL) and 2 mM of L-glutamine. Vero cells, obtained from ECACC, were suspended in culture medium and 75 μL/well was added in 96-well plates (10000 cells/well), which already contain the antiviral compounds. […] In addition, each plate contains wells which are assigned as virus controls (containing cells and virus in the absence of compound) and cell controls (containing cells in the absence of virus and compound). Once the cells were added in the plates, the plates were incubated in a fully humidified incubator (37° C., 5% CO2) until the next day. Dengue viruses serotype-1, -2, -3 and -4 were diluted in order to obtain a Cp of ˜22-24 in the assay. Therefore, 25 μL of virus suspension was added to all the wells containing test compound and to the wells assigned as virus control. In parallel, 25 μL of culture medium was added to the cell controls. Next, the plates were incubated for 3 days in a fully humidified incubator (37° C., 5% CO2). After 3 days, the supernatant was removed from the wells and the cells were washed twice with ice-cold PBS (˜100 μL). The cell pellets within the 96-well plates were stored at −80° C. for at least 1 day. Next, RNA was extracted using the Cells-to-CT^Tm lysis kit, according to the manufacturer's guideline (Life Technologies). The cell lysates can be stored at −80° C. or immediately used in the reverse transcription step.
(§3) In preparation of the reverse transcription step, mix A (table 3A) was prepared and 7.57 μL/well was dispensed in a 96-well plate. After addition of 5 μL of the cell lysates, a five minute denaturation step at 75° C. was performed (table 3B). Afterwards, 7.43 μL of mix B was added (table 3C) and the reverse transcription step was initiated (table 3D) to generate cDNA.
(§4) Finally, a RT-qPCR mix was prepared, mix C (table 4A), and 22.02 μL/well was dispensed in 96-well LightCycler qPCR plates to which 3 μL of cDNA was added and the qPCR was performed according to the conditions in table 4B on a LightCycler 480.
(§5) Using the LightCycler software and an in-house LIMS system, dose response curves for each compound were calculated and the half maximal effective concentration (EC50) and the half maximal cytotoxic concentration (CC50) were determined (Tables 5-8).

The next data set relates to DENV-3 strain H87. Kind of data set: Tetravalent RT-qPCR assay, serotype 3. The format is cell-based. As to conditions: Dengue virus, DENV3, 72 h; RT-qPCR serotype 3 H87, Protocol A, Vero cells, day 3. The method, then: as §1, §2, §3, §4, §5
(Quantitative PCR measures a nucleic acid by following its amplification.)

The subject of data set [1] is Vero cells. In words: in vitro. The format is cell-based. The conditions noted are these: African green monkey, 3 days. The method, then: as §1, with “The comparative ΔΔCp method is used to calculate EC50, which is based on the relative gene expression of the target gene (3′UTR) normalized with the cellular housekeeping gene (β-actin).” left out, “β-actin. […]” for “β-actin.”
as §5

A short description of data set [2]: in vitro. The format is cell-based. The conditions noted are these: African green monkey, CC50. The method, then:
as §1, with “The comparative ΔΔCp method is used to calculate EC50, which is based on the relative gene expression of the target gene (3′UTR) normalized with the cellular housekeeping gene (β-actin).” left out, “β-actin. […]” for “β-actin.”
as §5

In another data set the test system is DENV-2 16681 strain. In words: DENV-2 antiviral assay (eGFP fluorescence). The conditions noted are these: DENV-2 16681 eGFP, Vero cells, MOI 0.5, 3 days. The class given is cell-based, Dengue virus.
The next data set has as its system DENV-1 strain TC974#666. Kind of data set: Tetravalent RT-qPCR assay, serotype 1. The format is cell-based. As to conditions: Dengue virus, DENV1, Vero, 72 h. Here is the method: as §1, §2, §3, §4, §5
The test system of the next data set is DENV-2 strain 16681. In words: Tetravalent RT-qPCR assay, serotype 2. The conditions noted are these: Dengue virus, DENV2, 72 h; RT-qPCR serotype 2 16681, Protocol A, Vero cells, day 3. The format is cell-based. The method, then: as §1, §2, §3, §4, §5
Data set [3] relates to Vero cells. As to conditions: African green monkey.
The subject of the next data set is DENV-2. The conditions noted are these: analogous DENV-2 antiviral assay, reported activity; cited from earlier work.
Data set [4] is described as follows: in vitro. As to conditions: African green monkey.

Read-outs that look alike come from different tables or passages of the source.

By EC50 is commonly meant the concentration that produces a half-maximal response. Turning to `COc1cc(NC(C(=O)N2CCc3ccc(C(F)(F)F)cc32)c2ccc(Cl)cc2OC)cc(OCCCC(=O)O)c1` (single isomer, unassigned) [Compound 6B], the concentration giving a half-maximal response (EC50) worked out at 16 nM in the data set on DENV-4 strain H241; 1.7 nM in the data set on DENV-3 strain H87; 0.13 nM in the data set on DENV-2 16681 strain; 0.47 nM in the data set on DENV-1 strain TC974#666; 0.15 nM with DENV-2 strain 16681. In addition, the CC50 was over 2500 nM in the data set on Vero cells [1] and 13000 nM with Vero cells [3]. For the same molecule, the CC50 at 3 days in the data set “in vitro [2]” was over 2500 nM.
Consider `COc1cccc(NC(C(=O)N2CCc3ccccc32)c2ccccc2)c1` (stereo not shown) [(56) of WO-2013/045516], for which, in the data set on DENV-2, the EC50 was 450 nM.
Broadly, the melting point is the temperature, or range, at which the solid turns liquid. The molecule `COc1cc(NC(C(=O)N2CCc3ccc(C(F)(F)F)cc32)c2ccc(Cl)cc2)cc(OCCCC(=O)O)c1` (racemic) [Compound 3, 4-(3-((1-(4-chlorophenyl)-2-oxo-2-(6-(trifluoromethyl)indolin-1-yl)ethyl)amino)-5-methoxyphenoxy)butanoic acid] registered a melting point of 192 °C. This molecule returned a CC50 in “in vitro [4]” of 13000 nM. The molecule further returned an EC50 in the data set with DENV-2 16681 strain (Dengue virus, DENV2, Vero, 72 h) of 0.48 nM.
`CNC(=O)c1cccc(NC(C(=O)c2c[nH]c3ccccc23)c2ccccc2)c1` (stereo not shown) [(170) of WO-2013/045516]: the EC50 with DENV-2 is 440 nM.

(Values after US10689340B2, “Substituted indoline derivatives as dengue viral replication inhibitors” (priority 2016, dated 2020).)
